According to paper PMC4085797, “Synthetic Inositol Phosphate Analogs Reveal that PPIP5K2 Has a Surface-Mounted Substrate Capture Site that Is a Target for Drug Discovery” (Chemistry & Biology, 2014):
Where a chain is given by its changes, count along the chain named. pEC50, pIC50: −log10 of the molar value. Entries after “also recorded” stand apart in the source; their conditions may differ.

Tests used:
[1] = target: T1, PPIP5K2^KD (kinase domain of human PPIP5K2) (Homo sapiens, UniProt O43314); parameters: method as in Weaver et al., 2013; details: 25 μM; ref Weaver et al., 2013; cited from earlier work
T1 construct: The kinase domain of human PPIP5K2 (PPIP5K2^KD; residues 1–366); made in house
T1 sequence (O43314 1-366): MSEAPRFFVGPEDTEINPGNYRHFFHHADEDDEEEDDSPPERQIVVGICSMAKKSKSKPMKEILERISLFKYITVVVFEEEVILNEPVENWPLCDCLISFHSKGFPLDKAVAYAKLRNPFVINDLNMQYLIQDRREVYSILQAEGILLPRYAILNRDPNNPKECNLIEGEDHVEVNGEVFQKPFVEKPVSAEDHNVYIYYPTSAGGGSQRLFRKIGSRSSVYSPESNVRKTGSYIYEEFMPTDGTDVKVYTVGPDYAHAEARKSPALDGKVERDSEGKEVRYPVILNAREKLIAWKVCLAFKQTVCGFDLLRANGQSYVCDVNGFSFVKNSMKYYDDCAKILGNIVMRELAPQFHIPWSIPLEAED

[2] = target: T1, PPIP5K2^KD (kinase domain of human PPIP5K2); experiment: ATPase activity of PPIP5K2KD (Pi release); format: biochemical; details: for stimulation of ATPase activity (in words): wild-type enzyme; for pEC50: dose-response, key of Figure 4A, n = 3, read-out: EC50, stimulation of ATPase activities
Experimental: (§1) The initial InsP6 concentration was either 500 nM, 70 nM, or 40 nM. Various concentrations of 2,5-di-O-Bn-InsP4 were present as indicated. Radioactivity was assessed using an in-line Flo1 detector. The ADP-driven dephosphorylation of 100 nM 1,5-[PP]2-InsP4 by PPIP5K2^KD was usually determined by a luminescence-based assay of ATP accumulation ([Riley et al., 2012; Weaver et al., 2013]). The IC50 values were determined using GraphPad Prism v6.02 (n ≥ 3). In some experiments, 1,5-[PP]2-[^3H]InsP4 dephosphorylation by PPIP5K2^KD was assayed in 50 μl buffer containing 50 mM KCl, 20 mM HEPES pH 7.0, 7 mM MgSO4, 5 mM ADP, 1 mM EDTA. Reactions were then quenched, neutralized, and analyzed with HPLC using a Partisphere SAX column ([Weaver et al., 2013]); 1 ml fractions were collected for liquid scintillation spectrometry. The ATPase activity of PPIP5K2^KD (10–270 μg/ml) was assayed from Pi release following incubation at 37°C for 120–180 min in 20 μl reaction mixtures containing 20 mM Tris/HCl, pH 7.5, 10 mM ATP, 100 mM KCl, 0.1 mM EDTA, and 13 mM MgCl2.

[3] = target: T1, PPIP5K2^KD (kinase domain of human PPIP5K2); experiment: Reverse-kinase assay: ADP-driven dephosphorylation of 1,5-[PP]2-InsP4, luminescence-based assay of ATP accumulation; format: biochemical; details: for pIC50: 100 nM [PP]2-InsP4, key of Figure 4B, n = 3, read-out: IC50, inhibition of ADP-driven dephosphorylation of [PP]2-InsP4; for inhibition of [PP]2-InsP4 metabolism (in words): 100 nM 1,5-[PP]2-InsP4, Figure 4B
Experimental: The six compounds that were selected for the dose-response curves in the assays of ATP hydrolysis (Figure 4A) were now investigated for their effects upon diphosphoinositol polyphosphate metabolism by PPIP5K2^KD (Figure 4B). We used a high-throughput reverse-kinase assay that records ATP generated from ADP during the dephosphorylation of 100 nM 1,5-[PP]2-InsP4 ([Riley et al., 2012; Weaver et al., 2013]). Each of the tested analogs inhibited [PP]2-InsP4 metabolism by PPIP5K2^KD (Figure 4B). […] However, the inhibition by 2,5-di-O-Bn-InsP4 (10) was more unexpected because due to its bulk, and its less negative charge compared to physiological substrates, we predict it to be a poor ligand for the active site of the highly specific PPIP5K2^KD ([Wang et al., 2012]). Nevertheless, its ability to inhibit reverse-kinase activity was directly confirmed by high-performance liquid chromatography (HPLC) analysis of [PP]2-[^3H]InsP4 dephosphorylation (Figures S1A–S1C available online).
as §1

PPIP5K2^KD E192G mutant = target: T2, PPIP5K2^KD E192G mutant (Homo sapiens, UniProt O43314, E192G); experiment: ATPase activity of E192G mutant; format: biochemical
T2 construct: The kinase domain of human PPIP5K2 (PPIP5K2^KD; residues 1–366); made in house
T2 sequence (O43314 1-366 E192G): T1 sequence (O43314 1-366) with E192G
Experimental: as §1
Protein Expression, Purification, Crystallization and Structure Determination […]
(§2) The structure was further manually rebuilt with COOT and refined with PHENIX and
(§3) REFMAC from the CCP4 package. Ligand topology and parameter files were prepared using
(§4) the PRODRG server. The molecular graphics representations were prepared with the program
(§5) PyMol (Schrödinger, LLC). The 2D ligand-protein interaction diagrams were generated by
(§6) LigPlot+. Atomic coordinates and structure factors have been deposited with the Protein Data
(§7) Bank with accession codes: 4NZM, 4NZN, 4NZO.
(§8) Mutants were generated using a site-directed mutagenesis kit (Stratagene). Pairs of complementary
primers were designed as shown below, with mutagenic primers underlined (only 5’ primers are
All mutated constructs were sequenced. Mutant proteins were expressed and purified as for wild-

PPIP5K2^KD E192Q mutant = target: T3, PPIP5K2^KD E192Q mutant (Homo sapiens, UniProt O43314, E192Q); experiment: ATPase activity of E192Q mutant; format: biochemical; details: 25 μM, Figure 7E
T3 construct: The kinase domain of human PPIP5K2 (PPIP5K2^KD; residues 1–366); made in house
T3 sequence (O43314 1-366 E192Q): T1 sequence (O43314 1-366) with E192Q
Experimental: as §1
Protein Expression, Purification, Crystallization and Structure Determination
Full-length human IP6K2, the kinase domain of human PPIP5K2 (PPIP5K2KD; residues 1-
366), and the N-terminally truncated domain used for the crystallography studies (residues
41-366) were all sub-cloned, expressed and purified as before (Wang et al., 2012; Weaver et
al., 2013). […]
as §2, §3, §4, §5, §6, §7, §8
primers were designed as shown below, with mutagenic primers underlined (only 5’ primers are […]

| Compound | stimulation of ATPase activity (in words) ([2]; 25 μM, Figure 2) | pEC50 [2] | pIC50 [3] | other results |
| --- | --- | --- | --- | --- |
| O=P(O)(O)O[C@@H]1[C@@H](OP(=O)(O)O)[C@H](OP(=O)(O)O)[C@H](O)[C@H](OP(=O)(O)O)[C@H]1OP(=O)(O)O [Ins(1,3,4,5,6)P5] | – | – | – | activation of substrate-stimulated ATPase activity [1]: 2- to 3 fold |
| O=C(O[C@H]1[C@@H](OP(=O)(O)O)[C@H](OP(=O)(O)O)[C@@H](OP(=O)(O)O)[C@H](OP(=O)(O)O)[C@H]1OP(=O)(O)O)c1ccccc1 [compound 4, 2-O-benzoyl-InsP5] | only a minimal reduction in ATPase-stimulating activity | – | – | – |
| O=P(O)(O)O[C@@H]1[C@@H](OP(=O)(O)OP(=O)(O)O)[C@H](OP(=O)(O)O)[C@@H](OP(=O)(O)O)[C@@H](O)[C@H]1OP(=O)(O)O [compound 9, 5-PP-InsP4] | about half the rate shown by 2-O-Bn-5-PP-InsP4 (8) | 5.06 | 5.62 | – |
| O=P(O)(O)O[C@@H]1[C@@H](OP(=O)(O)O)[C@H](OP(=O)(O)O)[C@H](OCc2ccccc2)[C@H](OP(=O)(O)O)[C@H]1OP(=O)(O)O [compound 7, 2-O-Bn-InsP5] | less effective than was 2-O-Bn-5-PA-InsP4; also recorded: roughly doubling the rate of ATP hydrolysis that is induced by InsP6 | 5.66 | 6.36 | less potent than 2-O-Bn-5-PA-InsP4 (2) at stimulating ATPase activity ([2]; from EC50 values, Figure 4A): 4 fold; inhibition of [PP]2-InsP4 metabolism (in words) [3]: equally efficient |
| O=P(O)(O)O[C@@H]1[C@H](OCc2ccccc2)[C@H](OP(=O)(O)O)[C@@H](OP(=O)(O)O)[C@H](OP(=O)(O)OP(=O)(O)O)[C@H]1OP(=O)(O)O [compound 8, 2-O-Bn-5-PP-InsP4] | – | 5.59 | 6.30 | more effective at stimulating ATPase activity than 2-O-Bn-5-PA-IP4 (2) ([2]; 25 μM, Figure 2): 20%; rate of ligand-stimulated ATPase activity vs wild-type (in words) (PPIP5K2^KD E192G mutant): neither of these particular mutations altered the rate; rate of ligand-stimulated ATPase activity vs wild-type (in words) (PPIP5K2^KD E192Q mutant): neither of these particular mutations altered the rate |
| O=C(CP(=O)(O)O)O[C@@H]1[C@@H](OP(=O)(O)O)[C@H](OP(=O)(O)O)[C@H](O)[C@H](OP(=O)(O)O)[C@H]1OP(=O)(O)O [compound 3, 5-PA-InsP4] | dramatically reduced | – | – | – |
| NCCO[C@H]1[C@@H](OP(=O)(O)O)[C@H](OP(=O)(O)O)[C@@H](OP(=O)(O)O)[C@H](OP(=O)(O)O)[C@H]1OP(=O)(O)O [compound 6, 2-O-(2-aminoethyl)-InsP5] | did not stimulate ATPase activity | – | – | – |
| O=C(CP(=O)(O)O)O[C@@H]1[C@@H](OP(=O)(O)O)[C@H](OP(=O)(O)O)[C@H](OP(=O)(O)O)[C@H](OP(=O)(O)O)[C@H]1OP(=O)(O)O [compound 1, 5-O-α-phosphonoacetyl-myo-inositol 1,2,3,4,6-pentakisphosphate] | – | 5.92 | 6.85 | stimulation of ATP hydrolysis ([2]; 25 μM analog): 5 fold; inhibition of [PP]2-InsP4 metabolism (in words) [3]: most potent inhibitor |
| CCCC(=O)O[C@H]1[C@@H](OP(=O)(O)O)[C@H](OP(=O)(O)O)[C@@H](OP(=O)(O)O)[C@H](OP(=O)(O)O)[C@H]1OP(=O)(O)O [compound 5, 2-O-butanoyl-InsP5] | sharp reduction in activity | – | – | – |
